The target in test [1] is T1, recEhADH3B^b (Entamoeba histolytica, UniProt C4M6R1).
T1 construct: gene EHI_088020; E. coli BL21(DE3); dimer; EDTA-stripped and reloaded with Ni2+
T1 sequence (C4M6R1 1-382): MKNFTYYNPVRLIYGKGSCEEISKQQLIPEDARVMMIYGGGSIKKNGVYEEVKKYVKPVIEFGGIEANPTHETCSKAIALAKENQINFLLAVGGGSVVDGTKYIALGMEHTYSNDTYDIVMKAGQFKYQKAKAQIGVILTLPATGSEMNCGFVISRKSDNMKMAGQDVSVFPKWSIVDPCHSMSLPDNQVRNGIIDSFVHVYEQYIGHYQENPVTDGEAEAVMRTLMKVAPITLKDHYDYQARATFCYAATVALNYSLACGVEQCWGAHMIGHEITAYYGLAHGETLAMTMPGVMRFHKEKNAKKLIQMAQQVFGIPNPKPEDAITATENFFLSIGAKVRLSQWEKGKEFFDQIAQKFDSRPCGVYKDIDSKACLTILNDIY
The test is described as follows: NADPH oxidation at […] nm, Michaelis-Menten. The class given is biochemical. The note with it: 0.7 mM NADPH, pH 7.4, EDTA-treated and dialysed enzyme incubated with 1 mM Ni2+; reduction direction.

Test [2] concerns the target recombinant EhADH3B^b (alcohol dehydrogenase 3B of Entamoeba histolytica) (Entamoeba histolytica). The test is described as follows: SEC; HiLoad 16/60 Superdex prep grade column; 50 mM Tris, 150 mM NaCl, 10 mM EDTA, 1 mM DTT, 10% glycerol, pH 8.0; elution peak at 82 mL compared with standard proteins. (SEC sorts molecules by how far they enter the pores of the column.)

In general, stoichiometry N refers to a count of units in the complex or per binding partner.

For the molecule `CC=O` [acetaldehyde], the Km in test [1] was 30.84 [95% CI 16.21–60.54] mM. `C=O` [formaldehyde]: the Km in test [1] was 63.7 [95% CI 25.3 to 267.4] mM.

Take “recombinant EhADH3B^b (alcohol dehydrogenase 3B of Entamoeba histolytica) (enzyme)”: the stoichiometry N in test [2] amounted to 2.

The values are drawn from article PMC7594077, “An Alcohol Dehydrogenase 3 (ADH3) from Entamoeba histolytica Is Involved in the Detoxification of Toxic Aldehydes” (Microorganisms, 2020).
